Assay results: patent publication US11020451B2, “Methods for treating fibrotic cancers” (Promedior, Inc., priority 2013, dated 2021)

Columns and labels:
Format in all cases: in vivo, human
[1] = test system: myelofibrosis (MF) patients; experiment: Adverse events, tolerability and myelosuppression, Stage 1 study of PRM-151 alone and with ruxolitinib; details: for safety and tolerability: MF patients, alone and in combination with RUX; for treatment-related myelosuppression: after 24 weeks of therapy, all four cohorts
Experimental: (§1) Recombinant human SAP, in this case the recombinant human SAP known as PRM-151, was administered to myelofibrosis (MF) patients, alone and in combination with ruxolitinib (RUX), to evaluate safety and efficacy in treating bone marrow fibrosis (BMF). Patients with Intermediate-1, Intermediate-2, or high risk MF with grade ≥2 BMF, either not receiving therapy or on a stable dose of RUX, were eligible for this study.
(§2) Twenty-seven patients were assigned to one of four cohorts based on administration of PRM-151 as a monotherapy or as part of a combination therapy. Cohort 1: i) patients who received no treatment for MF in at least two weeks, ii) were administered an initial loading dose of SAP at 10 mg/kg by intravenous infusion (˜1 hour infusion) on days 1, 3, and 5, and iii) thereafter were administered a dose of SAP every four weeks at 10 mg/kg by intravenous infusion (˜1 hour infusion). Cohort 2: i) patients who received no treatment for MF in at least two weeks, ii) were administered an initial loading dose of SAP at 10 mg/kg by intravenous infusion (˜1 hour infusion) on days 1, 3, and 5, and iii) thereafter were administered a dose of SAP every week at 10 mg/kg by intravenous infusion (˜1 hour infusion). Cohort 3: i) patients on a stable dose (e.g., on ruxolitinib for at least 3 months without any dose modifications) of ruxolitinib for at least 12 weeks with no improvement in spleen during the last four weeks, ii) were administered an initial loading dose of SAP at 10 mg/kg by intravenous infusion (˜1 hour infusion) on days 1, 3, and 5 iii) thereafter were administered a dose of SAP every week at 10 mg/kg by intravenous infusion (˜1 hour infusion), and iv) were administered RUX orally at the dose at which they entered the study. Cohort 4: i) patients on a stable dose (e.g., on ruxolitinib for at least 3 months without any dose modifications) of ruxolitinib for at least 12 weeks with no improvement in spleen during the last four weeks, ii) were administered an initial loading dose of SAP at 10 mg/kg by intravenous infusion (˜1 hour infusion) on days 1, 3, and 5 iii) thereafter were administered a dose of SAP every four weeks at 10 mg/kg by intravenous infusion (˜1 hour infusion), and iv) were administered RUX orally at the dose at which they entered the study.
(§3) Patients in each cohort were monitored for improvements in BMF and other MF-related complications including, for example, abnormal blood cell parameters, splenomegaly, and symptoms as assessed by the MPN-SAF. In particular, patients were monitored for overall response rate according to the International Working Group consensus criteria for treatment response in myelofibrosis with myeloid metaplasia (Tefferi A, Cervantes F, Mesa R, et al. Revised response criteria for myelofibrosis: International Working Group-Myeloproliferative Neoplasms Research and Treatment (IWG-MRT) and European LeukemiaNet (ELN) consensus report. Blood. 2013; 122:1395-1398). Patients were also monitored for incidence of adverse events, changes in bone marrow fibrosis according to the European Consensus of Grading Bone Marrow Fibrosis (Thiele J, Kvasnicka H M, Facchetti F, et al. European consensus on grading bone marrow fibrosis and assessment of cellularity. Haematologica 2005; 90:1128-1132.), changes in the modified Myeloproliferative Neoplasma Symptom Assessment Form (MPN-SAF) Score (Emanuel et al. 2012, Journal of Clinical Oncology 30(33): 4098-4103), as well as pharmacokinetic parameters including, for example, maximum drug concentration (Cmax), time to maximum concentration (Tmax), area under the curve (AUC), clearance, and volume of distribution.
The numbers indicated in each column below the grade indicate the number of patients in which the adverse event was reported.

[2] = test system: myelofibrosis (MF) patients; experiment: Bone marrow fibrosis grade (European Consensus) and bone marrow response, same study; details: for number of patients with decrease in bone marrow fibrosis by ≥1 grade: all treatment arms, at 12 or 24 weeks or both; for bone marrow fibrosis grade change: after 12 weeks
Experimental: as §1, §2, §3
Bone marrow biopsies were obtained at baseline and after three months of therapy and were reviewed. […] As detailed below, these improvements in BMF have borne out upon further analysis of the data across further treatment periods.
Clinical response assessment, including assessment of spleen size, MPN-SAF, and CBC, was carried out every 4 weeks. […]

[3] = test system: myelofibrosis (MF) patients; experiment: MPN-SAF Total Symptom Score and IWG-MRT symptom response, same study; details: for number of patients with measurable symptom response (TSS reduction): alone; for MPN-SAF TSS response: patient 101-005 (Cohort 1), 24-30 weeks of monotherapy
Experimental: as §1, §2, §3
(§4) Clinical response assessment, including assessment of spleen size, MPN-SAF, and CBC, was carried out every 4 weeks. BM biopsies were carried out at baseline, 12 weeks, and 24 weeks. The IWG-MRT symptom and bone marrow responses observed at 24 weeks of this study are summarized below in Table 3. […]

[4] = test system: myelofibrosis (MF) patients; experiment: Spleen size / spleen response, same study; details: for number of patients with measurable decrease in spleen size: alone; for spleen size response: patient 101-005 (Cohort 1), 24-30 weeks of monotherapy
Experimental: as §1, §2, §3, §4

[5] = test system: myelofibrosis (MF) patients; experiment: Hemoglobin, platelets (CBC) and red blood cell transfusions, same study; details: for hemoglobin response / platelet response: patient 101-005 (Cohort 1), 24-30 weeks of monotherapy
Experimental: as §1, §2, §3, §4

[6] = Cohort 1: 10 mg/kg IV Q4W alone, 24 weeks
[7] = Cohort 2: 10 mg/kg IV QW alone, 24 weeks
[8] = a number of patients in all 4 treatment arms

## PRM-151: recombinant human SAP (serum amyloid P, pentraxin-2), α2,3-sialic acid-containing, expressed in CHO cells
[1]; [6]
  Abdominal pain Gr 3, number of patients: 1
  Fatigue Gr 2, number of patients: 2
  Neuropathy Peripheral Gr 2, number of patients: 1
[1]; [7]
  Abdominal pain Gr 3, number of patients: 1
  Alanine aminotransferase increased Gr 2, number of patients: 1
[1]; listed as SAP
  safety and tolerability: good tolerability
[1]; listed as rhSAP
  safety and tolerability: safe and well tolerated
  treatment-related myelosuppression: no evidence of clinically significant myelosuppression
[1]
  treatment-related myelosuppression: no apparent treatment-related myelosuppression
[2]; Cohort 1: Q4W alone, 24 weeks
  bone marrow responses, number: 2 bone marrow responses
[2]; Cohort 1: Q4W alone, 24 weeks, listed as recombinant human SAP
  bone marrow responses, number: 2
[2]; Cohort 2: QW alone, 24 weeks
  bone marrow responses, number: 1 bone marrow response
[2]
  number of patients with decrease in bone marrow fibrosis by ≥1 grade: 5
[2]; listed as recombinant human SAP
  number of patients with decrease in bone marrow fibrosis by ≥1 grade: five
[2]; in 10 additional patients evaluated at 36 weeks, alone or in combination
  bone marrow responses, number: 3
[2]; of 27 subjects examined, biopsies at baseline and after three months, all cohorts
  number of subjects with improvement in BMF: 5
[2]; one Cohort 1 patient (every four weeks, alone)
  bone marrow fibrosis grade change: Grade 2 to Grade 0
[2]; one Cohort 2 patient (weekly, alone)
  bone marrow fibrosis grade change: Grade 3 to Grade 2
[2]; patient 101-005 (Cohort 1), 12 weeks / three months
  bone marrow fibrosis grade change (reticulin staining): Grade 2 to Grade 0
[2]; patient 108-003 (Cohort 4), six months
  bone marrow fibrosis grade change (reticulin staining): Grade 2 to Grade 1
[2]; patient 108-003 (Cohort 4), three months
  bone marrow fibrosis grade change (reticulin staining): Grade 3 to Grade 2
[2]; patients responsive at the 12- or 24-week mark, following 36 weeks of treatment
  durability of response: continued to respond
[3]; Cohort 1: Q4W alone, 24 weeks
  symptom response ≥8 weeks, number: 1 symptom response ≥8 weeks
[3]; Cohort 1: every 4 weeks
  number of patients with measurable symptom response (TSS reduction): 4
[3]; Cohort 2: QW alone, 24 weeks
  confirmed symptom responses (≥12 weeks), number: 2 confirmed symptom responses (≥12 weeks)
  symptom response ≥8 weeks, number: 1 symptom response ≥8 weeks
[3]; Cohort 2: weekly
  number of patients with measurable symptom response (TSS reduction): 1
[3]; less than 50% on Cycle 6 Day 29
  additional subjects with 50% decrease in symptom score lasting ≥8 weeks: Two
[3]; of 18 evaluated patients followed to C6D29 or beyond, all four arms
  number of patients with reduction in MPN-SAF TSS compared to baseline: 10
[3]; on Cycle 6 Day 29, all arms
  number of patients with ≥50% reduction in Total Symptom Score: 5
[3]
  MPN-SAF TSS response: decrease
[3]; listed as rhSAP
  MPN-SAF TSS response: reduction
[4]; Cohort 1: every 4 weeks
  number of patients with measurable decrease in spleen size: 3
[4]; Cohort 2: QW alone, 24 weeks
  spleen response ≥8 weeks, number: 1 spleen response ≥8 weeks
[4]; Cohort 2: weekly
  number of patients with measurable decrease in spleen size: 2
[4]; all treatment arms, 24 weeks
  number of patients with ≥20% reduction in spleen volume: five
[4]; of 13 evaluated patients with palpable spleen followed to C6D29 or beyond, all four arms
  number of patients with reduction in spleen size compared to baseline: 10
[4]; one patient, Cohort 2 (weekly, alone), lasting 8 weeks
  reduction in spleen volume: 50%
[4]
  spleen size response: decrease
[4]; listed as rhSAP
  spleen size response: reduction
[5]; [8]
  hemoglobin levels: Improvement
  platelet levels: Improvement
  red blood cell transfusions: decrease
[5]
  hemoglobin response: increase
  platelet response: increase
[5]; listed as rhSAP
  hemoglobin response: improvement
  platelet response: improvement
